The test system of assay [1] is breast cancer cells (MDA MB 231, SKBr3). The assay can be described thus: mode of cell death: Annexin V binding, DNA fragmentation. The format is cell-based, human. The protocol:
(§1) 1. Induction of the loss of the mitochondrial transmembrane potential (MTP). […] 2. Induction of reactive oxygen species (ROS). […] 3. […] 4. Compounds were tested for induction of DNA damage using test known as comet assay that allows detection of DNA damage in individual cells. […] 6. The mode of cell death (i.e., apoptosis versus necrosis) was studied using several criteria: conversion of cells to positivity for binding Annexin V; DNA fragmentation (characteristic of apoptotic death) and decrease in cellular ATP levels (commonly observed during necrotic death) (FIG. 5). 1. Induction of the loss of the mitochondrial transmembrane potential (MTP). […] 2. Induction of reactive oxygen species (ROS). […] 3. […] 4. Compounds were tested for induction of DNA damage using test known as comet assay that allows detection of DNA damage in individual cells. […] 6. The mode of cell death (i.e., apoptosis versus necrosis) was studied using several criteria: conversion of cells to positivity for binding Annexin V; DNA fragmentation (characteristic of apoptotic death) and decrease in cellular ATP levels (commonly observed during necrotic death) (FIG. 5).

Assay [2] has the same test system. The experiment in a line: DNA damage, comet assay. The format is cell-based, human. The protocol: as §1
Assay [3] shares this test system. The assay can be described thus: cellular ATP levels, ATP bioluminescence. The format is cell-based, human. The protocol:
as §1

For assay [4] the test system is unchanged. The assay can be described thus: mitochondrially derived superoxide, MitoSOX staining. The format is cell-based, human. The procedure: as §1
The test system is the same in assay [5]. The experiment in a line: induction of ROS, CM-H2DCFDA staining. The format is cell-based, human. The procedure: as §1
DCFDA is nonfluorescent in reduced form and is readily membrane-permeant. Cellular esterases cleave its acetate groups. The thiol-reactive chloromethyl group then binds to cellular thiols, trapping the dye inside the cell, where oxidation converts it to the fluorescent form. […] It is relatively insensitive to oxidation by superoxide.
FIG. 1. […] The indicated compounds were added to cells at 20 μg/ml growth medium, followed by addition of 10 μM CM-H2 DCFDA. Inhibitor of mitochondrial respiration, NaN3, was added at 10 mM. After 30 minute incubation, cells were washed in PBS and analyzed on FACScan for fluorescence.

For assay [6], the system named is two different breast cancer cell lines. The assay can be described thus: induction of ROS (fold), compounds alone and in combination. As to conditions: Table 11. The format is cell-based. The protocol: In order to better understand the combined activities of the isolated species, several flavanones and flavones isolated from Scutellaria barbata were tested individually and in combination. The flavanones and flavones tested are depicted in FIG. 8. These compounds 1-8 from were tested for induction of ROS, DNA damage and cell death, as described in Example 2.
The results set forth in Tables 10 and 11 were confirmed by performing the experiments in two different breast cancer cell lines.

`O=c1cc(-c2ccc(O)cc2)oc2cc(O)cc(O)c12` [Apigenin]: in assay [1], the “cell death and its mode” value was “induce significant cell death characterized as apoptotic”. Moreover, the “induction of DNA damage” value in assay [2] is “do not induce DNA damage”. Further, in assay [3], the “cellular ATP levels” value was “slight but consistent increase in ATP levels”. Moreover, the “generation of mitochondrial superoxide” value in assay [4] is given as “induce generation of superoxide whose origin is identified as mitochondrial”.

As for `O=C1CC(c2ccc(O)cc2)Oc2cc(O)c(O)c(O)c21` (stereo not drawn) [Carthamidin], the “induction of DNA damage” value in assay [2] is given as “induce DNA damage”. For the same molecule, the “induction of cellular ROS” value in assay [5] is on record as “induce ROS, but of extra-mitochondrial origin”.

For the molecule `O=C1CC(c2ccc(O)cc2)Oc2c(O)c(O)cc(O)c21` (stereo not drawn) [Isocarthamidin], the “induction of DNA damage” value in assay [2] is listed as “induce DNA damage”. Moreover, the “induction of cellular ROS” value in assay [5] is listed as “induce ROS, but of extra-mitochondrial origin”.

Turning to `O=c1cc(-c2ccc(O)cc2)oc2c(O)c(O)cc(O)c12` [Isoscutellarein], the “cell death and its mode” value in assay [1] is reported as “cell death that has hallmarks of programmed necrosis”. Further, the “induction of DNA damage” value in assay [2] was “induce DNA damage”. The “induction of cellular ROS” value in assay [5] is on record as “induce ROS, but of extra-mitochondrial origin”.

Take `O=c1cc(-c2ccc(O)cc2)oc2cc(O)c(O)c(O)c12` [Scutellarein]: in assay [1], the “cell death and its mode” value is listed as “cell death that has hallmarks of programmed necrosis”. In addition, in assay [2], the “induction of DNA damage” value is listed as “induce DNA damage”. For the same molecule, in assay [5], the “induction of cellular ROS” value is on record as “induce ROS, but of extra-mitochondrial origin”.

Turning to `O=c1cc(-c2ccc(O)cc2)oc2cc(O)cc(O)c12` [cmpd 4], the “Induction of ROS (fold)” value in assay [6] is 0.6 fold.

The values above are taken from US20100069481A1, “METHODS AND COMPOSITIONS FOR THE TREATMENT OF CANCER” (Bionovo, Inc., priority 2008, published 2010).
